What was measured:
[1] = system: human neuroblastoma cells (SK—N—SH); assay: Mitochondrial JC-1 staining in ionomycin-treated SK-N-SH cells; type: cell-based
Method: (§1) Primary neuronal cultures were prepared from rat fetal tissue on the gestation days indicated from the cortex (day 17), hippocampus (day 19) or spine (day 15). Neurons were dissociated by trypsinization in the presence of DNAseI and trituration and cultured in Neurobasal (Gibco) medium supplemented with 2% B27 (Gibco), 0.5 mM L-Glutamine. Cells were plated on poly L-lysine coated plates, allowed to adhere and maintained at 37° C. in 5% CO2-95% air and then test compound was added for a period of 3 days. Cultures were fixed using 2.5% glutaraldehyde. Approximately 80 digital images were taken per condition. Neurite length was calculated using Image-Pro Plus. Each analysis was performed with two separate culture studies. Dimebon was tested at concentrations of 0.01-500 nM and BDNF at 50 ng/mL. Mitochondrial effects were assessed with primary rat hippocampal cells treated with Dimebon or vehicle and 0.25 μM ionomycin. Dimebon's effects on JC-1 mitochondrial staining was also assessed in ionomycin-treated human neuroblastoma cells (SK—N—SH). Mitochondrial accumulation of JC-1 was assessed by fluorescence microscopy.

[2] = system: BrdU positive cells/neurons in the hippocampus and dentate gyrus; assay: Neurogenesis in healthy rats: BrdU / NeuN immunohistochemistry of hippocampus and dentate gyrus; type: in vivo, Wistar rats; settings: 14 days
Excerpt: Wistar rats were obtained from Charles River or Harlan Winkelmann (Germany). Male rats were approximately 3 months old upon arrival at the animal colony. Animals were kept in an animal facility under standardized conditions and according to the animal welfare regulations of the Ministry of Science of the Austrian government. A record of bodyweights was maintained. The animals were allowed to acclimatize for at least one week prior to any experimental manipulations. Twelve rats per group were maintained on a 12 hour light/dark cycle. Three backup animals were maintained in order to compensate for animal loss. All rats were housed in groups of four per cage and had ad libitum access to food and water. Rats were randomly allocated to four different treatment groups receiving intraperitoneal (i.p.) 5-bromo-2-deoxyuridine (BrdU, Sigma #B9285, 50 mg/kg body weight (b.w.)) and either (i) Dimebon at 10 mg/kg b.w./twice a day; (ii) Dimebon at 30 mg/kg b.w./twice a day; (iii) Dimebon at 60 mg/kg b.w./twice a day; or (iv) 0.2 mL vehicle (saline) twice a day. Treatment with BrdU, a synthetic nucleoside analog of thymidine, is commonly used to detect proliferating cells in living tissues such as the brain. Dimebon and vehicle were administered orally twice a day in a volume of 0.2 mL. BrdU was administered every other day. The daily Dimebon or vehicle treatment was performed several minutes before BrdU treatment. On day 14, animals were sacrificed approximately four hours after the last Dimebon treatment and one day after the last BrdU treatment. Diluted dimebon was prepared fresh daily. At sacrifice, the rats were sedated using standard anesthesia. After transcardial perfusion with phosphate buffered saline (PBS) followed by 4% Paraformaldehyde/PBS, the brain from each rat was carefully removed, post-fixed in 4% Paraformaldehyde/PBS for one hour, transferred to 15% sucrose for cryoprotection, and shock-frozen in liquid isopentane. Brains were stored at −80° C. until cryo-cutting. The brains were cut sagittally using a cryotome and stored at −20° C. until staining. Five layers were cut with 10 sections at 20 micrometers per layer with an interlayer slice gap of 100 micrometers. Standard Cresyl-Violett staining was performed on two consecutive slices per animal. BrdU immunohistochemistry was quantified to provide a morphological overview of cell division. For the evaluation of BrdU positive cells/neurons, sections were processed by double-incubation with mouse anti-Neuronal Nuclei (NeuN) monoclonal antibody (Chemicon) and anti-BrdU (Abcam). One section per layer was treated in a three-day double-incubation with mouse anti-Neuronal Nuclei (NeuN) monoclonal antibody 1:800 (Chemicon, Hofheim. Germany) and anti-BrdU (sheep polyclonal to BrdU) 1:500 (Abcam, Cambridge, UK). The secondary antibodies were a Cy-3-conjugated pure affine goat anti-mouse IgG (H+L) 1:200 (Jackson ImmunoResearch, Cambridgeshire, UK) and a Cy 2-conjugated pure affine F(ab′)2 fragment of donkey anti-sheep IgG (H+L) 1:100 (Jackson ImmunoResearch, Cambridgeshire, UK). Briefly, the anti-NeuN antibody was incubated overnight at 4° C., the Cy3 antibody was incubated the next day for one hour at room temperature, followed by the anti-BrdU antibody overnight at 4° C. and the Cy2 antibody for one hour at room temperature. To open the cell surfaces before the BrdU incubation, slices were treated with 2N HCl for 15 minutes at 40° C. and then washed for 20 minutes in a methanol mixture (60 ml methanol, 2 ml H2O2, and 0.6 ml Triton X) to block endogenous peroxidases. Niss1 staining was used as an overview staining. Tiled images of the sagittal slice including the cortex and the hippocampus were recorded at 200-fold magnification. Each single image used a PCO PixelFly camera mounted on a NikonE800 microscope equipped with an software controlled (StagePro) automatic table. Both fluorescent colors, red for NeuN and green for BrdU, were recorded separately. For quantification, the images were merged. […]

[3] = system: primary rat cortical neurons; assay: Neurite outgrowth of primary rat cortical neurons cultured with dimebon; type: cell-based; settings: low concentrations (picomolar and nanomolar); 3 days growth; FIG. 1
Method: (§2) Standard methods were used to isolate cortical neurons and spinal motor neurons. For the isolation of primary rat cortical neurons, the fetal brain from a pregnant rat at 17 days of gestation was prepared in Leibovitz's medium (L15; Gibco). The cortex was dissected out, and the meninges were removed. Trypsin (Gibco) was used to dissociate cortical neurons for 30 minutes at 37° C. with DNAse I. The cells were triturated in a 10 mL pipette in Dulbecco's Modified Eagle Media (“DMEM”; Gibco) with 10% Fetal Bovine Serum (“FBS”) (Gibco) and centrifuged at 350×g for 10 minutes at room temperature. The cells were suspended in Neurobasal medium supplemented with 2% B27 (Gibco) and 0.5 mM L-glutamine (Gibco). […] The results were expressed as mean (s.e.m.). […]
(§3) Primary neuronal cultures were prepared from rat fetal tissue on the gestation days indicated from the cortex (day 17), hippocampus (day 19) or spine (day 15). […] Neurite length was calculated using Image-Pro Plus. […] Mitochondrial effects were assessed with primary rat hippocampal cells treated with Dimebon or vehicle and 0.25 μM ionomycin. Dimebon's effects on JC-1 mitochondrial staining was also assessed in ionomycin-treated human neuroblastoma cells (SK—N—SH). Mitochondrial accumulation of JC-1 was assessed by fluorescence microscopy.

[4] = system: primary rat spinal motor neurons; assay: Neurite outgrowth of primary rat spinal motor neurons cultured with dimebon; type: cell-based; settings: picomolar and nanomolar concentrations; FIG. 4
Method: as §2, §3

[5] = system: primary rat hippocampal neurons; assay: Neurite outgrowth of primary rat hippocampal neurons cultured with dimebon; type: cell-based
Method: To isolate hippocampal neurons, a female rat of 19 days gestation was killed by cervical dislocation, and the fetuses were removed from the uterus. Their brains were removed and placed in ice-cold medium of Leibovitz (L15, Gibco, Invitrogen). Meninges were carefully removed, and the hippocamps were dissected out. The hippocampal neurons were dissociated by trypsinization for 30 minutes at 37° C. (Trypsin-EDTA; Gibco) in the presence of DNAse I (Roche; Meylan). The reaction was stopped by the addition of DMEM (Gibco) cell culture medium with 10% of FBS (Gibco). The suspension was triturated with a 10-ml pipette using a needle syringe 21G and centrifuged at 350×g for 10 minutes at room temperature. The resulting pellet is resuspended in culture medium containing Neurobasal medium (Gibco) supplemented with 2% B27 supplement (Gibco) and 2 mM of glutamine (Gibco). Viable cells were counted in a Neubauer cytometer using the trypan blue exclusion test (Sigma) and seeded on the basis of 30,000 cells per Petri dish (Nunc) precoated with poly-L-lysine. Cells were allowed to adhere for two hours and maintained in a humidified incubator at 37° C. in 5% CO2-95% air atmosphere. After adhesion, a vehicle control or dimebon was added at different concentrations to the medium. BDNF (1.85 nM) was used as a positive control for neurite growth. After treatment, cultures were washed in phosphate-buffered saline (PBS, Gibco) and fixed in glutaraldehyde 2.5% in PBS. Cells were fixed after 3 days growth. Several pictures (˜80) of cells with neurites without any branching were taken per condition with a camera (Coolpix 995; Nikon) fixed on microscope (Nikon, objective 40×). The length measurements were made by analysis of the pictures using software from Image-Pro Plus (France). The results were expressed as mean (s.e.m.). Statistical analysis of the data was performed using one way analysis of variance (ANOVA). […]
The effect of Dimebon (100 nM) on neurite outgrowth using primary hippocampal neurons was evaluated by measuring neurite length (expressed % of control, FIG. 5A) and number of neurites per neuron (FIG. 5B). The effects of vehicle, Dimebon and BDNF (50 ng/mL) were determined after incubations of 24 hours, 48 hours and 72 hours. […]
as §3

[6] = system: primary rat hippocampal cells; assay: Mitochondrial JC-1 staining in ionomycin-treated primary rat hippocampal cells; type: cell-based; settings: Dimebon 0.25 nM and 2.5 nM; 0.25 μM ionomycin; compared with vehicle treatment
Method: as §1

Compound: Cc1ccc2c(c1)c1c(n2CCc2ccc(C)nc2)CCN(C)C1.Cl.Cl [Dimebon, 2,8-dimethyl-5-(2-(6-methyl-3-pyridyl)-ethyl)-2,3,4,5-tetrahydro-1H-pyrido[4,3-b]indole dihydrochloride]
- mitochondrial JC-1 staining [1]: preserved
- BrdU positive progenitor cells in the dentate gyrus ([2]; 30 mg/kg Dimebon vs vehicle, p=0.05, FIG. 7A): significant increase
- BrdU positive progenitor cells in the hippocampus ([2]; 60 mg/kg Dimebon vs vehicle-treated group, p=0.05, FIG. 6A): significant increase
- BrdU positive neurons (NeuN and BrdU IR) in the hippocampus ([2]; 60 mg/kg Dimebon vs vehicle-treated group, p=0.05, FIG. 6B): significant increase
- BrdU positive progenitor cells in the dentate gyrus ([2]; 60 mg/kg Dimebon vs vehicle-treated group, p=0.05, FIG. 7A): significant increase
- BrdU positive neurons (NeuN and BrdU IR) in the dentate gyrus ([2]; 60 mg/kg Dimebon vs vehicle-treated group, p=0.05, FIG. 7B): significant increase
- total number of BrdU staining cells in the hippocampus ([2]; rats, oral twice a day, FIG. 6A): increases
- number of BrdU staining neurons in the hippocampus ([2]; rats, oral twice a day, FIG. 6B): increases
- total number of BrdU staining cells in the dentate gyrus ([2]; rats, oral twice a day, FIG. 7A): increases
- number of BrdU staining neurons in the dentate gyrus ([2]; rats, oral twice a day, FIG. 7B): increases
- neurite outgrowth of primary rat cortical neurons [3]: stimulated
- neurite outgrowth of primary rat spinal motor neurons [4]: stimulated
- effect on neurite length and number of neurites per neuron relative to BDNF ([5]; Dimebon 100 nM vs BDNF 50 ng/mL, 24, 48, 72 hours): comparable
- neurite length ([5]; Dimebon 100 nM, incubations of 24, 48 and 72 hours, compared to vehicle, FIG. 5A): increased
- number of neurites per neuron ([5]; Dimebon 100 nM, incubations of 24, 48 and 72 hours, compared to vehicle, FIG. 5B): increased
- neurite outgrowth of primary rat hippocampal neurons ([5]; picomolar and nanomolar concentrations, 3 days growth, FIG. 3): stimulated
- mitochondrial JC-1 staining [6]: preserved
